Calls of active or inactive are those of the source. The rule behind the calls is not given here.
Key:
Thielaviopsis paradoxa [1] = test: Antifungal activity against Ceratocystis paradoxa assessed as inhibition of conidium germination at 5 g/l incubated for 15 min followed by compound washout measured after 2 days by microscopic analysis in absence of surfactant APSA 80; assay type: functional, organism-based
Fusarium verticillioides [2] = test: Growth inhibition of Fusarium verticillioides assessed as inhibition of mycelial growth up to 160 g/l incubated for 15 min followed by compound washout measured after 7 days in absence of surfactant APSA 80; assay type: functional
Colletotrichum musae [3] = test: Growth inhibition of Colletotrichum musae assessed as inhibition of mycelial growth up to 160 g/l incubated for 15 min followed by compound washout measured after 7 days in absence of surfactant APSA 80; assay type: functional
Thielaviopsis paradoxa [4] = test: Growth inhibition of Ceratocystis paradoxa assessed as inhibition of mycelial growth up to 160 g/l incubated for 15 min followed by compound washout measured after 7 days in presence of surfactant APSA 80; assay type: functional
Fusarium verticillioides [5] = test: Antifungal activity against Fusarium verticillioides infected Cavendish banana fruit assessed as reduction in crown rot incubated for 15 min followed by compound washout measured after 3 weeks in presence of surfactant APSA 80 relative to control; assay type: functional; parameters: concentration or dose not given beside the values; conditions: pooled result: one value given for 4 cell lines, strains, targets or settings
Fusarium verticillioides [6] = test: Antifungal activity against Fusarium verticillioides infected Cavendish banana fruit assessed as reduction in crown rot incubated for 15 min followed by compound washout measured after 3 weeks in absence of surfactant APSA 80 relative to control; assay type: functional; parameters: concentration or dose not given beside the values; conditions: pooled result: one value given for 4 cell lines, strains, targets or settings
Fusarium verticillioides [7] = test: Antifungal activity against Fusarium verticillioides infected Cavendish banana fruit assessed as reduction in crown rot incubated for 15 min followed by compound washout measured after 2 weeks in presence of surfactant APSA 80 relative to control; assay type: functional; parameters: concentration or dose not given beside the values
Colletotrichum musae [8] = test: Antifungal activity against Colletotrichum musae infected Cavendish banana fruit assessed as reduction in crown rot incubated for 15 min followed by compound washout measured after 2 weeks in presence of surfactant APSA 80 relative to control; assay type: functional; parameters: concentration or dose not given beside the values
Thielaviopsis paradoxa [9] = test: Antifungal activity against Ceratocystis paradoxa infected Cavendish banana fruit assessed as reduction in crown rot incubated for 15 min followed by compound washout measured after 2 weeks in presence of surfactant APSA 80 relative to control; assay type: functional; parameters: concentration or dose not given beside the values
Lasiodiplodia theobromae [10] = test: Antifungal activity against Lasiodiplodia theobromae infected Cavendish banana fruit assessed as reduction in crown rot incubated for 15 min followed by compound washout measured after 2 weeks in presence of surfactant APSA 80 relative to control; assay type: functional; parameters: concentration or dose not given beside the values
Fusarium verticillioides [11] = test: Antifungal activity against Fusarium verticillioides infected Cavendish banana fruit assessed as reduction in crown rot incubated for 15 min followed by compound washout measured after 2 weeks in absence of surfactant APSA 80 relative to control; assay type: functional; parameters: concentration or dose not given beside the values
Colletotrichum musae [12] = test: Antifungal activity against Colletotrichum musae infected Cavendish banana fruit assessed as reduction in crown rot incubated for 15 min followed by compound washout measured after 2 weeks in absence of surfactant APSA 80 relative to control; assay type: functional; parameters: concentration or dose not given beside the values
Thielaviopsis paradoxa [13] = test: Antifungal activity against Ceratocystis paradoxa infected Cavendish banana fruit assessed as reduction in crown rot incubated for 15 min followed by compound washout measured after 2 weeks in absence of surfactant APSA 80 relative to control; assay type: functional; parameters: concentration or dose not given beside the values
Lasiodiplodia theobromae [14] = test: Antifungal activity against Lasiodiplodia theobromae infected Cavendish banana fruit assessed as reduction in crown rot incubated for 15 min followed by compound washout measured after 2 weeks in absence of surfactant APSA 80 relative to control; assay type: functional; parameters: concentration or dose not given beside the values
Fusarium verticillioides [15] = test: Antifungal activity against Fusarium verticillioides infected Cavendish banana fruit assessed as reduction in crown rot incubated for 15 min followed by compound washout measured after 1 week in presence of surfactant APSA 80 relative to control; assay type: functional; parameters: concentration or dose not given beside the values
Colletotrichum musae [16] = test: Antifungal activity against Colletotrichum musae infected Cavendish banana fruit assessed as reduction in crown rot incubated for 15 min followed by compound washout measured after 1 week in presence of surfactant APSA 80 relative to control; assay type: functional; parameters: concentration or dose not given beside the values
Thielaviopsis paradoxa [17] = test: Antifungal activity against Ceratocystis paradoxa infected Cavendish banana fruit assessed as reduction in crown rot incubated for 15 min followed by compound washout measured after 1 week in presence of surfactant APSA 80 relative to control; assay type: functional; parameters: concentration or dose not given beside the values
Lasiodiplodia theobromae [18] = test: Antifungal activity against Lasiodiplodia theobromae infected Cavendish banana fruit assessed as reduction in crown rot incubated for 15 min followed by compound washout measured after 1 week in presence of surfactant APSA 80 relative to control; assay type: functional; parameters: concentration or dose not given beside the values
Fusarium verticillioides [19] = test: Antifungal activity against Fusarium verticillioides infected Cavendish banana fruit assessed as reduction in crown rot incubated for 15 min followed by compound washout measured after 1 week in absence of surfactant APSA 80 relative to control; assay type: functional; parameters: concentration or dose not given beside the values
Colletotrichum musae [20] = test: Antifungal activity against Colletotrichum musae infected Cavendish banana fruit assessed as reduction in crown rot incubated for 15 min followed by compound washout measured after 1 week in absence of surfactant APSA 80 relative to control; assay type: functional; parameters: concentration or dose not given beside the values
Thielaviopsis paradoxa [21] = test: Antifungal activity against Ceratocystis paradoxa infected Cavendish banana fruit assessed as reduction in crown rot incubated for 15 min followed by compound washout measured after 1 week in absence of surfactant APSA 80 relative to control; assay type: functional; parameters: concentration or dose not given beside the values
Lasiodiplodia theobromae [22] = test: Antifungal activity against Lasiodiplodia theobromae infected Cavendish banana fruit assessed as reduction in crown rot incubated for 15 min followed by compound washout measured after 1 week in absence of surfactant APSA 80 relative to control; assay type: functional; parameters: concentration or dose not given beside the values
Fusarium verticillioides [23] = test: Antifungal activity against Fusarium verticillioides assessed as reduction in colony diameter at 10 to 160 g/l incubated for 15 min followed by compound washout measured after 7 days in absence of surfactant APSA 80 relative to control; assay type: functional; parameters: scale not given: the % may be the effect or the level left
Colletotrichum musae [24] = test: Antifungal activity against Colletotrichum musae assessed as reduction in colony diameter at 10 to 160 g/l incubated for 15 min followed by compound washout measured after 7 days in absence of surfactant APSA 80 relative to control; assay type: functional; parameters: scale not given: the % may be the effect or the level left
Thielaviopsis paradoxa [25] = test: Antifungal activity against Ceratocystis paradoxa assessed as reduction in colony diameter at 10 to 160 g/l incubated for 15 min followed by compound washout measured after 7 days in absence of surfactant APSA 80 relative to control; assay type: functional; parameters: scale not given: the % may be the effect or the level left
Lasiodiplodia theobromae [26] = test: Antifungal activity against Lasiodiplodia theobromae assessed as reduction in colony diameter at 10 to 160 g/l incubated for 15 min followed by compound washout measured after 7 days in absence of surfactant APSA 80 relative to control; assay type: functional; parameters: scale not given: the % may be the effect or the level left
Fusarium verticillioides [27] = test: Antifungal activity against Fusarium verticillioides assessed as reduction in colony diameter at 10 to 160 g/l incubated for 15 min followed by compound washout measured after 7 days in presence of surfactant APSA 80 relative to control; assay type: functional; parameters: scale not given: the % may be the effect or the level left
Colletotrichum musae [28] = test: Antifungal activity against Colletotrichum musae assessed as reduction in colony diameter at 10 to 160 g/l incubated for 15 min followed by compound washout measured after 7 days in presence of surfactant APSA 80 relative to control; assay type: functional; parameters: scale not given: the % may be the effect or the level left
Thielaviopsis paradoxa [29] = test: Antifungal activity against Ceratocystis paradoxa assessed as reduction in colony diameter at 10 to 160 g/l incubated for 15 min followed by compound washout measured after 7 days in presence of surfactant APSA 80 relative to control; assay type: functional; parameters: scale not given: the % may be the effect or the level left
Lasiodiplodia theobromae [30] = test: Antifungal activity against Lasiodiplodia theobromae assessed as reduction in colony diameter at 10 to 160 g/l incubated for 15 min followed by compound washout measured after 7 days in presence of surfactant APSA 80 relative to control; assay type: functional; parameters: scale not given: the % may be the effect or the level left
Thielaviopsis paradoxa [31] = test: Growth inhibition of Ceratocystis paradoxa assessed as inhibition of mycelial growth up to 160 g/l incubated for 15 min followed by compound washout measured after 7 days in absence of surfactant APSA 80; assay type: functional, organism-based
Lasiodiplodia theobromae [32] = test: Growth inhibition of Lasiodiplodia theobromae assessed as inhibition of mycelial growth up to 160 g/l incubated for 15 min followed by compound washout measured after 7 days in absence of surfactant APSA 80; assay type: functional, organism-based

SMILES	Activity (Fusarium verticillioides [2])	Activity (Colletotrichum musae [3])	Activity (Thielaviopsis paradoxa [4])	Activity (Fusarium verticillioides [5])	Activity (Fusarium verticillioides [6])	Activity (Fusarium verticillioides [7])	Activity (Colletotrichum musae [8])	Activity (Thielaviopsis paradoxa [9])	Activity (Lasiodiplodia theobromae [10])	Activity (Fusarium verticillioides [11])	Activity (Colletotrichum musae [12])	Activity (Thielaviopsis paradoxa [13])	Activity (Lasiodiplodia theobromae [14])	Activity (Fusarium verticillioides [15])	Activity (Colletotrichum musae [16])	Activity (Thielaviopsis paradoxa [17])	Activity (Lasiodiplodia theobromae [18])	Activity (Fusarium verticillioides [19])	Activity (Colletotrichum musae [20])	Activity (Thielaviopsis paradoxa [21])	also measured
[Na+].[O-]Cl [SODIUM HYPOCHLORITE]	50 g/L	30 g/L	90 g/L	47%	61%	50%	50%	50%	50%	50%	50%	50%	50%	0%	0%	0%	0%	0%	0%	0%	inhibition (Thielaviopsis paradoxa [1]): Active; Activity (Lasiodiplodia theobromae [22]): 0%; Activity (Fusarium verticillioides [23]): 0%; Activity (Colletotrichum musae [24]): 13%; Activity (Thielaviopsis paradoxa [25]): 18%; Activity (Lasiodiplodia theobromae [26]): 40%; Activity (Fusarium verticillioides [27]): 51%; Activity (Colletotrichum musae [28]): 78%; Activity (Thielaviopsis paradoxa [29]): 67%; Activity (Lasiodiplodia theobromae [30]): 92%
[Cl-].[Na+] [SODIUM CHLORIDE]	inactive	inactive	inactive	0%	-5%	10%	10%	10%	10%	0%	0%	0%	0%	0%	0%	0%	0%	0%	0%	0%	Activity (Thielaviopsis paradoxa [31]): inactive; Activity (Lasiodiplodia theobromae [32]): inactive; Activity (Lasiodiplodia theobromae [22]): 0%; Activity (Fusarium verticillioides [23]): 83%; Activity (Colletotrichum musae [24]): 83%; Activity (Thielaviopsis paradoxa [25]): 71%; Activity (Lasiodiplodia theobromae [26]): 90%; Activity (Fusarium verticillioides [27]): 79%; Activity (Colletotrichum musae [28]): 93%; Activity (Thielaviopsis paradoxa [29]): 84%; Activity (Lasiodiplodia theobromae [30]): 94%
[Ca+2].[Cl-].[Cl-] [CALCIUM CHLORIDE]	inactive	inactive	inactive	58%	42%	50%	50%	50%	50%	0%	0%	0%	0%	0%	0%	0%	0%	0%	0%	0%	inhibition (Thielaviopsis paradoxa [1]): Active; Activity (Thielaviopsis paradoxa [31]): inactive; Activity (Lasiodiplodia theobromae [32]): inactive; Activity (Lasiodiplodia theobromae [22]): 0%; Activity (Fusarium verticillioides [23]): 5%; Activity (Colletotrichum musae [24]): 0%; Activity (Thielaviopsis paradoxa [25]): 28%; Activity (Lasiodiplodia theobromae [26]): 35%; Activity (Fusarium verticillioides [27]): 53%; Activity (Colletotrichum musae [28]): 62%; Activity (Thielaviopsis paradoxa [29]): 56%; Activity (Lasiodiplodia theobromae [30]): 87%

From ChEMBL document CHEMBL3044541, “Control of crown rot-causing fungal pathogens of banana by inorganic salts and a surfactant” (Crop Prot, 2007)
